Results on two compounds are retold here after ChEMBL document CHEMBL3639104, “Ring-fused compound” (2015).

For this assay, the target named is T1, Solute carrier family 22 member 12 (Homo sapiens, UniProt Q96S37).
T1 sequence (Q96S37 whole entry): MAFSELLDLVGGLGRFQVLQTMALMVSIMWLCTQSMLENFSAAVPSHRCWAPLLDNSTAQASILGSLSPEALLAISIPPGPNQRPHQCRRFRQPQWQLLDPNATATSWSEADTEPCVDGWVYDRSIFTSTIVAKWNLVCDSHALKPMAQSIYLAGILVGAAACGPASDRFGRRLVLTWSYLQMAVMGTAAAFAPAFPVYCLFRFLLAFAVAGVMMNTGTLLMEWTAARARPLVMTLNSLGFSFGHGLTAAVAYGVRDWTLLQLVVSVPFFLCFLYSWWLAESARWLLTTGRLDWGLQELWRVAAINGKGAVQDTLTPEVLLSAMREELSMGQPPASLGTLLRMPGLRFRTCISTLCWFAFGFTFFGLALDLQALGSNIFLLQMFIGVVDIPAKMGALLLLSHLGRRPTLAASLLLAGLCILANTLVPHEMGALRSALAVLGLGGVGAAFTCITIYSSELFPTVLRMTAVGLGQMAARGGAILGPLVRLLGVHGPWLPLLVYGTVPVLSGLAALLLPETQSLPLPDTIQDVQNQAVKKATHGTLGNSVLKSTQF
The assay is described as follows: Inhibition Assay: It was introduced human URAT1 full-length cDNA into an expression vector pcDNA5 / FRT / V5-His TOPO (registered trademark) (Invitrogen). The resulting expression plasmids, the liposome method using Lipofectamine LTX (Invitrogen), Chinese hamster ovary cells (hereinafter, referred to as CHO cells) was introduced into, by culturing in a selective medium containing hygromycin and human URAT1 stable The expression cell line we were prepared.Human URAT1 expression CHO cells, 10% fetal calf serum, D-MEM / F-12 containing the hygromycin (1: 1) using a mixed medium, 37 C, were cultured in the presence of 5% CO2. Cells were seeded in 96-well plates (Corning Incorporated) in 0.8x10E+5 cells / well, were subjected to the following uric acid transport inhibition test after 24 hours.After removal of the medium by aspiration, sodium gluconate of cells 125mM, potassium gluconate of 4.8mM, potassium dihydrogen phosphate of 1.2mM, magnesium sulfate of 1.2mM, calcium gluconate of 1.3mM, 5. washed once. The class given is cell-based.

The term IC50 denotes the concentration that gives 50% inhibition. With `Cc1nn(Cc2c(Cl)cccc2Cl)c2cc(C(C)C(=O)O)ccc12` (configuration not stated), the concentration for half-maximal inhibition (IC50) came to 75 nM.

For `Cc1nn(Cc2c(Cl)cccc2Cl)c2cc(C(C)(C)C(=O)O)ccc12`, the 50% inhibitory concentration (IC50) came to 98 nM.
